Experimental findings from patent US10301305B2 (priority 2014, dated 2019) are described below.

Type in all cases: biochemical
One experiment concerns the target S. aureus DltA (Staphylococcus aureus (strain NCTC 8325 / PS 47), UniProt Q2FZW6). As to the kind of experiment: in vitro DltA activity assay (luminescence), S. aureus DltA. Conditions: recombinant DltA, 30 min pre-incubation, 0.5 mM D-Alanine, 0.5-5 μM ATP; read-out: S. aureus DltA IC50. How it is done: (§1) The effect of the compounds of the invention on DltA enzymes has been based on the measure of their inhibition of DltA activity in vitro. To this end, recombinant proteins DltA were expressed and purified after cloning of the genes of S. aureus, E. faecalis, E. faecium and S. agalactiae as described thereafter. The capacity of the compounds of the invention to inhibit DltA enzymatic activity was assessed using the DltA assays as described below:
(§2) The dltA gene was amplified from chromosomal DNA of S. aureus, E. faecalis, E. faecium and S. agalactiae and introduced into E. coli BL21 (Invitrogen, Carlsbad, Calif.) following manufacturer's instruction. Bacteria were grown at 37° C. under aerobic conditions and isopropyl-beta-D-thiogalactopyranoside (IPTG) was added to 0.5-1 mM when OD600 of the bacterial culture had reached 0.5. After a further incubation for 3 hours, cells were harvested by centrifugation. Purification of the recombinant DltA protein was performed by affinity chromatography on nickel-nitrilotriacetic acid (Ni-NTA) column following manufacturer's instructions (Qiagen). Fractions containing recombinant DltA protein were adjusted to 50% glycerol and stored at −20° C. until use.
(§3) The binding potency of the inhibitors against DltA enzyme was assessed by IC50 determination in an in vitro DltA activity assay. The assay buffer “AB” contained 50 mM Hepes pH8.0, 10 mM MgCl2, 50 mM KCl, 0.012% Triton-X100, 10 mM DTT and 100 nM Myelin-basic protein. The following components were added in a white polystyrene Costar plate up to a final volume of 30 μL: 3 μL DMSO, or inhibitor dissolved in DMSO and 27 μL DltA enzyme in AB. After 30 min of pre-incubation at room temperature, 30 μL of Substrates mix in AB were added in each well to a final volume of 60 μL. This reaction mixture was then composed of DltA (produced in house from S. aureus, E. faecalis, E. faecium and S. agalactiae), 0.5 mM D-Alanine (Sigma), 0.5-5 μM ATP (Sigma) and 0.05 u/ml inorganic pyrophosphatase (Sigma) in assay buffer. After typically 1-2 hours of incubation at room temperature (conversion rate around 30%), 30 μL of the revelation mix were added to a final volume of 90 μL, including the following constituents at the respective final concentrations: 10000 u/ml luciferase (Sigma), 30 μM D-luciferin (Sigma), 100 μM N-acetylcysteamine (Aldrich). Luminescence intensity was immediately measured on a Fluostar Optima (BMG) (excitation 360 nm, emission 520 nm) and converted into inhibition percentages. For IC50 determinations (Inhibitory Concentration 50%) the inhibitor was added at 6 to 10 different concentrations and the related inhibitions were fitted to a classical Langmuir equilibrium model using XLFIT (IDBS).
(§4) For compounds interfering with the luminescent signal (quenching), the same experiment without DltA enzyme was performed to allow quenching determination and correction.

The target of the next experiment is S. Agalactiae DltA (Streptococcus agalactiae serotype III (strain NEM316), UniProt Q8VM67). As to the kind of experiment: in vitro DltA activity assay (luminescence), S. agalactiae DltA. Conditions: recombinant DltA, 30 min pre-incubation, 0.5 mM D-Alanine, 0.5-5 μM ATP; read-out: S. Agalactiae DltA IC50. How it is done: as §1, §2, §3, §4
The target of the next experiment is E. feacium DltA (Enterococcus faecium, UniProt Q3XZT7). As to the kind of experiment: in vitro DltA activity assay (luminescence), E. faecium DltA. To be noted: recombinant DltA, 30 min pre-incubation, 0.5 mM D-Alanine, 0.5-5 μM ATP; read-out: E. feacium DltA IC50. The method, then: as §1, §2, §3, §4
In a further experiment the target is E. feacalis DltA (Enterococcus faecalis, UniProt Q830N0). As to the kind of experiment: in vitro DltA activity assay (luminescence), E. faecalis DltA. To be noted: recombinant DltA, 30 min pre-incubation, 0.5 mM D-Alanine, 0.5-5 μM ATP; read-out: E. feacalis DltA IC50. How it is done:
as §1, §2, §3, §4

Structures can show the parent of a compound that is named as a salt.

E. feacium DltA, sequence (Q3XZT7 1-504): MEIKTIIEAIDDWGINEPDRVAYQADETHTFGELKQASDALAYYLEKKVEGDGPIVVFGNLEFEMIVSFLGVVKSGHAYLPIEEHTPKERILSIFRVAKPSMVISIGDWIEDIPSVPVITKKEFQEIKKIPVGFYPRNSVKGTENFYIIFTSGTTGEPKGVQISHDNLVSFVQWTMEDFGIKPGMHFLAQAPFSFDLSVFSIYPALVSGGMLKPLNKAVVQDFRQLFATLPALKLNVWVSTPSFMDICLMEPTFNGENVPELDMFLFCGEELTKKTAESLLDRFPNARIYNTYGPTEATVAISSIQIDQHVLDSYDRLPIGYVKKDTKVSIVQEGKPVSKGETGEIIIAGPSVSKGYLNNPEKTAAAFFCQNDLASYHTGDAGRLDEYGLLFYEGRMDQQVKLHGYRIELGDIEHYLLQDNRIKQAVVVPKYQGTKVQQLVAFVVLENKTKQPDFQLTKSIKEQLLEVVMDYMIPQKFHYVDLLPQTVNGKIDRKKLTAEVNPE
E. feacalis DltA, sequence (Q830N0 1-506): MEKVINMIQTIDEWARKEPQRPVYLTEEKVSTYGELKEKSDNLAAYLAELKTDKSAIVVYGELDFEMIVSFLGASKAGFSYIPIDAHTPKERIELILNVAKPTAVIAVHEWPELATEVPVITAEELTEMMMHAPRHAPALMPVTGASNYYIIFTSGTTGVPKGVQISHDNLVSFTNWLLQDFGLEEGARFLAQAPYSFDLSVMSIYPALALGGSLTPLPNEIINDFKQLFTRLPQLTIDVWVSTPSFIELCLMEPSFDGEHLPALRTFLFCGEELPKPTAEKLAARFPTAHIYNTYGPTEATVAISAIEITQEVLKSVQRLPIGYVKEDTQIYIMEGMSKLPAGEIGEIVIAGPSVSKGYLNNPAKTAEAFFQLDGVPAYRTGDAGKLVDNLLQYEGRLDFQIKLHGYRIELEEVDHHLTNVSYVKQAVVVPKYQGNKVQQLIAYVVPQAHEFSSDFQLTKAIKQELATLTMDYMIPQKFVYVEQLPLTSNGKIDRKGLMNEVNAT

On to `NC(=O)c1c(N2CC[C@H](CO)C2)cc(-c2ccc3c(c2)ncn3C2CCCCC2)c2nc[nH]c12` [Example 64, 1′-Cyclohexyl-6-((S)-3-hydroxymethyl-pyrrolidin-1-yl)-1H,1′H-[4,5′]bibenzimidazolyl-7-carboxamide], for which the 50% inhibitory concentration (IC50) on S. aureus DltA turned out to be 65 nM; at S. Agalactiae DltA, 710 nM; at E. feacium DltA it was 68 nM; on E. feacalis DltA it was 27 nM.

As to `NC(=O)c1c(N2CC3CNCC3C2)cc(-c2ccc3c(c2)ncn3C2CCCCC2)c2nc[nH]c12` (centres unmarked) [Example 65, 1′-Cyclohexyl-6-(hexahydro-pyrrolo[3,4-c]pyrrol-2-yl)-1H,1′H-[4,5′]bibenzimidazolyl-7-carboxylic acid amide hydrochloride], the IC50 on S. aureus DltA turned out to be 66 nM; on S. Agalactiae DltA, 1800 nM; on E. feacium DltA, 140 nM; on E. feacalis DltA, 36 nM.

As to `NC(=O)c1c(N2CCC(CCO)C2)cc(-c2ccc3c(c2)ncn3C2CCCCC2)c2nc[nH]c12` (centres unmarked) [Example 77, 1′-Cyclohexyl-6-[3-(2-hydroxy-ethyl)-pyrrolidin-1-yl]-1H,1′H-[4,5′]bibenzimidazolyl-7-carboxamide], the IC50 turned out to be 77 nM on S. aureus DltA, 1300 nM on S. Agalactiae DltA, 110 nM on E. feacium DltA and 41 nM at E. feacalis DltA.

As to `N#Cc1c(NCCO)cc(-c2ccc3c(c2)ncn3C2CCCCC2)c2nc[nH]c12` [Example 78], the half-maximal inhibitory concentration (IC50) came to 210 nM on S. aureus DltA, 5400 nM on S. Agalactiae DltA, 590 nM at E. feacium DltA and 170 nM on E. feacalis DltA.

Regarding `CN(CCO)c1cc(-c2ccc3c(c2)ncn3C2CCCCC2)c2nc[nH]c2c1C#N` [Example 92], the IC50 at S. aureus DltA was 190 nM; at S. Agalactiae DltA, 8200 nM; on E. feacium DltA, 600 nM; at E. feacalis DltA it was 240 nM.

For `CN(C)CCOc1cc(-c2ccc3c(c2)ncn3C2CCCCC2)c2nc[nH]c2c1C#N` [Example 104], the 50% inhibitory concentration (IC50) on S. aureus DltA is 53 nM; at S. Agalactiae DltA, 2400 nM; on E. feacium DltA, 390 nM; at E. feacalis DltA, 84 nM.

Turning to `CN1CCN(c2cc(-c3ccc4c(c3)ncn4C3CCCCC3)c3nc[nH]c3c2C(N)=O)CC1` [Example 106, 1′-Cyclohexyl-6-(4-methyl-piperazin-1-yl)-1H,1′H-[4,5′]bibenzimidazolyl-7-carboxamide], the IC50 at S. aureus DltA turned out to be 34 nM; on S. Agalactiae DltA it was 500 nM; at E. feacium DltA, 76 nM; on E. feacalis DltA it was 18 nM.

Regarding `O=C(NO)c1c(F)cc(-c2ccc3c(c2)ncn3C2CCCCC2)c2nc[nH]c12` [Example 111, 1′-Cyclohexyl-6-fluoro-1H,1′H-[4,5′]bibenzimidazolyl-N-hydroxy-7-carboxamide], the half-maximal inhibitory concentration (IC50) is 280 nM on S. aureus DltA, 11000 nM at S. Agalactiae DltA, 1100 nM at E. feacium DltA and 610 nM on E. feacalis DltA.

With `CN(CCO)c1cc(-c2ccc3c(c2)ncn3C2CCCCC2)c2nc[nH]c2c1C(N)=O` [Example 117, 1′-Cyclohexyl-6-[(2-hydroxy-ethyl)-methyl-amino]-1H,1′H-[4,5′]bibenzimidazolyl-7-carboxamide], the IC50 at S. aureus DltA came out at 23 nM; at S. Agalactiae DltA, 560 nM; at E. feacium DltA it was 27 nM; on E. feacalis DltA it was 16 nM.

For `CN(C)CCCN(C)c1cc(-c2ccc3c(c2)ncn3C2CCCCC2)c2nc[nH]c2c1C(N)=O` [Example 122, 1′-Cyclohexyl-6-[(3-dimethylamino-propyl)-methyl-amino]-1H,1′H-[4,5′]bibenzimidazolyl-7-carboxamide], the IC50 at S. aureus DltA stood at 59 nM; at S. Agalactiae DltA it was 1800 nM; at E. feacium DltA, 82 nM; on E. feacalis DltA, 31 nM.

`CN(C)CCN(C)c1cc(-c2ccc3c(c2)ncn3C2CCCOC2)c2nc[nH]c2c1C(N)=O` (centres unmarked) [Example 123, 6-[(2-dimethylamino-ethyl)-methyl-amino]-1′-(tetrahydro-pyran-3-yl)-1H,1′H-[4,5′]bibenzimidazolyl-7-carboxamide]: the half-inhibitory concentration (IC50) at S. aureus DltA came out at 6.9 nM; on S. Agalactiae DltA, 970 nM; on E. feacium DltA, 41 nM; on E. feacalis DltA, 8.2 nM.

For the compound `CN(C)CC1CCCN1c1cc(-c2ccc3c(c2)ncn3C2CCCCC2)c2nc[nH]c2c1C(N)=O` (centres unmarked) [Example 126, 1′-Cyclohexyl-6-(2-dimethylaminomethyl-pyrrolidin-1-yl)-1H,1′H-[4,5′]bibenzimidazolyl-7-carboxamide], the IC50 was found to be 57 nM at S. aureus DltA, 1800 nM at S. Agalactiae DltA, 240 nM at E. feacium DltA and 56 nM on E. feacalis DltA.

Regarding `CN(CCN1CCCC1)c1cc(-c2ccc3c(c2)ncn3C2CCCCC2)c2nc[nH]c2c1C(N)=O` [Example 127, 1′-Cyclohexyl-6-[methyl-(2-pyrrolidin-1-yl-ethyl)-amino]-1H,1′H-[4,5′]bibenzimidazolyl-7-carboxamide], the half-maximal inhibitory concentration (IC50) at S. aureus DltA is 25 nM; on S. Agalactiae DltA, 140 nM; at E. feacium DltA, 18 nM; on E. feacalis DltA, 2.9 nM.

For `CCN(CC)CCN(C)c1cc(-c2ccc3c(c2)ncn3C2CCCCC2)c2nc[nH]c2c1C(N)=O` [Example 130, 1′-Cyclohexyl-6-[(2-diethylamino-ethyl)-methyl-amino]-1H,1′H-[4,5′]bibenzimidazolyl-7-carboxamide], the IC50 on S. aureus DltA was found to be 73 nM; on S. Agalactiae DltA it was 790 nM; on E. feacium DltA, 170 nM; on E. feacalis DltA, 36 nM.

Consider `CN(C)CCN(CCO)c1cc(-c2ccc3c(c2)ncn3C2CCCCC2)c2nc[nH]c2c1C(N)=O` [Example 131, 1′-Cyclohexyl-6-[(2-dimethylamino-ethyl)-(2-hydroxy-ethyl)-amino]-1H,1′H-[4,5′]bibenzimidazolyl-7-carboxamide], for which the IC50 was 75 nM on S. aureus DltA, 1900 nM at S. Agalactiae DltA, 230 nM on E. feacium DltA and 40 nM at E. feacalis DltA.

Regarding `CN(C)CCN(C)c1cc(-c2ccc3scnc3c2)c2nc[nH]c2c1C(N)=O` [Example 134, 7-Benzothiazol-5-yl-5-[(2-dimethylamino-ethyl)-methyl-amino]-3H-benzimidazole-4-carboxamide], the half-inhibitory concentration (IC50) at S. aureus DltA worked out at 250 nM; at S. Agalactiae DltA it was 1100 nM; at E. feacium DltA, 120 nM; at E. feacalis DltA it was 24 nM.

In the case of `COCCn1cnc2cc(-c3cc(N(C)CCN(C)C)c(C(N)=O)c4[nH]cnc34)ccc21` [Example 135], the 50% inhibitory concentration (IC50) on S. aureus DltA is 17 nM; at S. Agalactiae DltA it was 840 nM; at E. feacium DltA, 45 nM; on E. feacalis DltA, 69 nM.

For the compound `CN(C)CCN(C)c1cc(-c2cnc3c(c2)CCCO3)c2nc[nH]c2c1C(N)=O` [Example 144, 7-(3,4-Dihydro-2H-pyrano[2,3-b]pyridin-6-yl)-5-[(2-dimethylamino-ethyl)-methyl-amino]-3H-benzimidazole-4-carboxamide], the IC50 on S. aureus DltA was determined as 39 nM; on S. Agalactiae DltA, 630 nM; at E. feacium DltA, 120 nM; at E. feacalis DltA, 17 nM.

Turning to `CCn1cnc2cc(-c3cc(N(C)CCN(C)C)c(C(N)=O)c4[nH]cnc34)cc(OC)c21` [Example 152], the 50% inhibitory concentration (IC50) on S. aureus DltA is 13 nM; on S. Agalactiae DltA, 2200 nM; at E. feacium DltA, 58 nM; on E. feacalis DltA, 16 nM.

For `CN(C)CCN(C)c1cc(-c2ccc3c(c2)ncn3C2CCC(F)(F)CC2)c2nc[nH]c2c1C(N)=O` [Example 161, 1′-(4,4-Difluoro-cyclohexyl)-6-[(2-dimethylamino-ethyl)-methyl-amino]-1H,1′H-[4,5′]bibenzimidazolyl-7-carboxamide], the IC50 at S. aureus DltA was determined as 13 nM; at S. Agalactiae DltA, 1200 nM; at E. feacium DltA, 69 nM; on E. feacalis DltA, 8.1 nM.

A word on the IC50: it is the midpoint of a concentration-inhibition curve.
